Experimental data from ChEMBL document CHEMBL1201862, “PubChem BioAssay data set” (2004).
One block for each molecule: values may come before it. The source made the active and inactive calls.

Legend:
[1] = biological target: T1, G-protein coupled receptor 35 (Homo sapiens, UniProt Q9HC97); assay: SAR analysis of Antagonists of the GPR35 Receptor using an Image-Based Assay - Set 3. [Related pubchem assays (depositor defined):AID2013, AID2026]; assay type: functional
Cannabinoid receptor 1 [2] = biological target: T2, Cannabinoid receptor 1 (Homo sapiens, UniProt P21554); assay: SAR analysis of agonists of the Cannabinoid Receptor 1 using an Image-Based Assay - Set 2. [Related pubchem assays (depositor defined):AID2013, AID2026]; assay type: functional
[3] = biological target: T3, G-protein coupled receptor 55 (Homo sapiens, UniProt Q9Y2T6); assay: GPR55 antagonists blocking LPI-driven arrestin recruitment, primary screen, imaging, U2OS, beta-arrestin-GFP, LPI agonist (AID 2013); assay type: functional;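 further: antagonist potency measured as reduced agonist-driven arrestin aggregation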
Cannabinoid receptor 1 [4] = biological target: T2, Cannabinoid receptor 1; assay: SAR analysis of antagonists of the Cannabinoid Receptor 1 using an Image-Based Assay - Set 2. [Related pubchem assays (depositor defined):AID2013, AID2026]; assay type: functional
[5] = biological target: T3, G-protein coupled receptor 55; assay: GPR55 antagonist potency of analogs, SAR follow-up, imaging, U2OS, beta-arrestin-GFP, LPI agonist, set 2 (AID 2820); assay type: functional
Cannabinoid receptor 2 [6] = biological target: T4, Cannabinoid receptor 2 (Homo sapiens, UniProt P34972); assay: SAR analysis of antagonists of the Cannabinoid Receptor 2 using an Image-Based Assay. [Related pubchem assays (depositor defined):AID2013, AID2026]; assay type: functional
[7] = biological target: T1, G-protein coupled receptor 35; assay: SAR analysis of Agonists of the GPR35 Receptor using an Image-Based Assay - Set 2. [Related pubchem assays (depositor defined):AID2013, AID2026]; assay type: functional
Cannabinoid receptor 2 [8] = biological target: T4, Cannabinoid receptor 2; assay: SAR analysis of agonists of the Cannabinoid Receptor 2 using an Image-Based Assay. [Related pubchem assays (depositor defined):AID2013, AID2026]; assay type: functional
[9] = biological target: Peroxisome proliferator-activated receptor gamma/Nuclear receptor coactivator 1 (Homo sapiens, UniProt P37231); assay: TR-FRET dose response biochemical High Throughput Screening assay for agonists of the steroid receptor coactivator 1 (SRC-1) recruitment by the peroxisome proliferator-activated receptor gamma (PPAR gamma): non-selective agonists. [Related pubchem assays (depositor defined):AID1300, AID1808, AID504735, AID631]; assay type: protein assay
[10] = biological target: Peroxisome proliferator-activated receptor gamma/Nuclear receptor coactivator 2 (Homo sapiens, UniProt P37231); assay: (§1) TR-FRET dose response biochemical High Throughput Screening assay for agonists of the steroid receptor coactivator 2 (SRC-2) recruitment by the peroxisome proliferator-activated receptor gamma (PPAR gamma): non-selective agonists. [Related pubchem assays: 1297, 1032 ]; assay type: functional
[11] = biological target: Peroxisome proliferator-activated receptor gamma/Nuclear receptor coactivator 3 (Homo sapiens, UniProt P37231); assay: as §1, with “3 (SRC-3)” for “2 (SRC-2)”, “1301 (Confirmation screen.), 1048 (Primary screen.)]” for “1297, 1032 ]”; assay type: functional
[12] = biological target: T5, Tyrosine-protein phosphatase non-receptor type 22 (Homo sapiens, UniProt Q9Y2R2); assay: LYP (PTPN22) phosphatase inhibitor potency, SAR follow-up, biochemical, pCAP fluorogenic substrate, fluorescence, set 3 (AID 449727); assay type: functional
T5 sequence (Q9Y2R2 whole entry): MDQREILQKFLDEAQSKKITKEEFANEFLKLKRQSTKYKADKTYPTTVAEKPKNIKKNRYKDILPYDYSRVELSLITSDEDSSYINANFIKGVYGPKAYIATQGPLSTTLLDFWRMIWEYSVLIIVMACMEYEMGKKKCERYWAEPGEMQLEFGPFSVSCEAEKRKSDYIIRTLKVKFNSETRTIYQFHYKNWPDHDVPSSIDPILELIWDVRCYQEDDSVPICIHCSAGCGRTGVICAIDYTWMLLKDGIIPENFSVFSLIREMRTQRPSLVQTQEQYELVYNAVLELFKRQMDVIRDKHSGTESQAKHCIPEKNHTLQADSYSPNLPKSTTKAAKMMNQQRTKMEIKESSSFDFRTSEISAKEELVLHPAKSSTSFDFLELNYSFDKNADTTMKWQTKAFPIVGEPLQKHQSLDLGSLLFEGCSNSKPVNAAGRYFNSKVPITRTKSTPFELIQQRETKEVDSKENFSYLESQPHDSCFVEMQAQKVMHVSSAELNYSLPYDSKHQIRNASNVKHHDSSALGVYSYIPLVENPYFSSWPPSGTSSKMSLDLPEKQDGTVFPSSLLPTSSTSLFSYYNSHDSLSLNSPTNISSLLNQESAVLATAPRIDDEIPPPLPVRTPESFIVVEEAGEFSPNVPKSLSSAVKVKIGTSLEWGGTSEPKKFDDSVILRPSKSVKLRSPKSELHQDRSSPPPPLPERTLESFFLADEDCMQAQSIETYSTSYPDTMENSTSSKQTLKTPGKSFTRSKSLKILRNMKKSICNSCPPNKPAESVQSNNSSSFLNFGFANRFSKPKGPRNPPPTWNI

[13] = biological target: T5, Tyrosine-protein phosphatase non-receptor type 22; assay: SAR LYP1 Fluorescent Assay using OMFP substrate for In Vitro dose response studies - Set 3. [Related pubchem assays (depositor defined):AID1779, AID1784, AID2140, AID2686]; assay type: functional
[14] = biological target: T5, Tyrosine-protein phosphatase non-receptor type 22; assay: SAR LYP1 Fluorescent Assay using OMFP substrate for In Vitro dose response studies - Set 2. [Related pubchem assays (depositor defined):AID1779, AID1784, AID2140, AID449726, AID488869]; assay type: functional
[15] = biological target: T6, Tyrosine-protein phosphatase non-receptor type 7 (Homo sapiens, UniProt P35236); assay: HePTP (PTPN7) phosphatase inhibitor potency, SAR follow-up, biochemical, set 2 (AID 449736); assay type: functional
T6 sequence (P35236 whole entry): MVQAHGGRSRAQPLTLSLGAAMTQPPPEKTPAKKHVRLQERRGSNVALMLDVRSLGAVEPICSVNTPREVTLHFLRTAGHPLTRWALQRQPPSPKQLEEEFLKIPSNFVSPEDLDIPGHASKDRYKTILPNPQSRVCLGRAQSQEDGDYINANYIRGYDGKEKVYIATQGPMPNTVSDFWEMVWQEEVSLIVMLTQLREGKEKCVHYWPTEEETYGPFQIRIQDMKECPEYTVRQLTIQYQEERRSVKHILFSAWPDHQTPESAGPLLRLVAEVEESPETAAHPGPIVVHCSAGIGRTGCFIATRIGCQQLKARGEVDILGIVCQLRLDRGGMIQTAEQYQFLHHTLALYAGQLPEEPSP

[16] = biological target: T5, Tyrosine-protein phosphatase non-receptor type 22; assay: SAR LYP1 Fluorescent Assay using pCAP substrate for In Vitro dose response studies - Set 2. [Related pubchem assays (depositor defined):AID1779, AID1784, AID2135, AID449727]; assay type: functional
[17] = biological target: Tyrosine-protein phosphatase non-receptor type 12 (Homo sapiens, UniProt Q05209); assay: SAR Selectivity Analysis of small molecule inhibitors of PEST using pCAP in a fluorescence assay. [Related pubchem assays (depositor defined):AID1779, AID1784, AID2135]; assay type: functional
Chain of Tyrosine-protein phosphatase non-receptor type 12 (Q05209 whole entry): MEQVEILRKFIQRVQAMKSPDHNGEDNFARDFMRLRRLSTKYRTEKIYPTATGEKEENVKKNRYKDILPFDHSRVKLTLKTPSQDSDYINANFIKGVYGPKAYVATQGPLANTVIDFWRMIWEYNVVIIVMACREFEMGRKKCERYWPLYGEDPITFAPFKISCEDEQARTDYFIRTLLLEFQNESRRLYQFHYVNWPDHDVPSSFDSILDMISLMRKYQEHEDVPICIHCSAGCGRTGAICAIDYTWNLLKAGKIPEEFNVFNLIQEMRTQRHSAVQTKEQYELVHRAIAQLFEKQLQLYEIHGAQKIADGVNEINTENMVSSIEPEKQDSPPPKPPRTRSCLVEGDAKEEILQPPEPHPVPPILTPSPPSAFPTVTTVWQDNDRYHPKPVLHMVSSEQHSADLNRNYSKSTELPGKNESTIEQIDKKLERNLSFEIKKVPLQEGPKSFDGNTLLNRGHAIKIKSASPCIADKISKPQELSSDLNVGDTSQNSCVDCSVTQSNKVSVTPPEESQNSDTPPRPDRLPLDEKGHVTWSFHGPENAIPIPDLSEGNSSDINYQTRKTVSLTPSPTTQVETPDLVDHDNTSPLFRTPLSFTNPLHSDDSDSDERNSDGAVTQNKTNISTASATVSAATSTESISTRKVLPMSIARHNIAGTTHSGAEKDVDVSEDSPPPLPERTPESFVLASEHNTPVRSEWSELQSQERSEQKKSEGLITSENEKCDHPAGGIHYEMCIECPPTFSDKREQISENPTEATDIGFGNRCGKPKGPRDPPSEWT

T4 sequence (P34972 whole entry): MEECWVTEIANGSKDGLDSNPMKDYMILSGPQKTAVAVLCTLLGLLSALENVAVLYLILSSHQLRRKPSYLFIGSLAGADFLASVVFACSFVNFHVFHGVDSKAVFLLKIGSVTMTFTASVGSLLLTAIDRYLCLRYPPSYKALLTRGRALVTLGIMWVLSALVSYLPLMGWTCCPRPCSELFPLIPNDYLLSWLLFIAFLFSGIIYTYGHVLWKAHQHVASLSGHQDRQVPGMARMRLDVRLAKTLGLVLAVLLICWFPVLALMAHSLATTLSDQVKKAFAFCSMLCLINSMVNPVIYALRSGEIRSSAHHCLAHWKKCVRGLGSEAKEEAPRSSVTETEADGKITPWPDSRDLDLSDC
T3 sequence (Q9Y2T6 whole entry): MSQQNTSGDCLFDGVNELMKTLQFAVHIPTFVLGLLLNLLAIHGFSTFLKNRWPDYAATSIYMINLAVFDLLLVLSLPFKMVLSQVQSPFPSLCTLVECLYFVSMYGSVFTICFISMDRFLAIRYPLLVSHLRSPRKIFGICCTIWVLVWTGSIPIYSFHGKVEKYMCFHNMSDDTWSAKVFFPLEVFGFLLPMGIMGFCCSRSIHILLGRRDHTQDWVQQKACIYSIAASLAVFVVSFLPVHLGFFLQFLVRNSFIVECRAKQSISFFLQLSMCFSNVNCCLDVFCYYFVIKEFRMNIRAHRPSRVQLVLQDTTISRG
T1 sequence (Q9HC97 whole entry): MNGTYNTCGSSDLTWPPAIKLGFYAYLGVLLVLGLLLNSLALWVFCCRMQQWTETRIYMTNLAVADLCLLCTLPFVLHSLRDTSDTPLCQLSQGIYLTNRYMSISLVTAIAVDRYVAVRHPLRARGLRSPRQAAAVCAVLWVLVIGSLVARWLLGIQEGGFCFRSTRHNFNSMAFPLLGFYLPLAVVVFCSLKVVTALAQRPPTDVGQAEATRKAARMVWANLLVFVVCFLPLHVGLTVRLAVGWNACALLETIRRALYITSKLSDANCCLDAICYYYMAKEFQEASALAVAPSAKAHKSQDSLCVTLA
T2 sequence (P21554 whole entry): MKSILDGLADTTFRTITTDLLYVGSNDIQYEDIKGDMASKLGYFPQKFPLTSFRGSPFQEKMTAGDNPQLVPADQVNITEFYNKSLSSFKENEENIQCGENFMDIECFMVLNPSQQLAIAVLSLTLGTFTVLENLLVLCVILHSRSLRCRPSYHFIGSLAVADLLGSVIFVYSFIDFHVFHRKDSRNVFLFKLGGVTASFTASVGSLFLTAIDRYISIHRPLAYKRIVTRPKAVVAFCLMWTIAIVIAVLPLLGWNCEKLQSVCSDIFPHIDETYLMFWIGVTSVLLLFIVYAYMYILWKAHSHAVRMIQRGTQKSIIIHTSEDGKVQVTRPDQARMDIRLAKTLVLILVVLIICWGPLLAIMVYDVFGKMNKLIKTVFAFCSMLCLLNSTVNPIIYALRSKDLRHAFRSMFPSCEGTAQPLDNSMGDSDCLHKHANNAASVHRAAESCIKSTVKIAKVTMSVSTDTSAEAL
Chain of Peroxisome proliferator-activated receptor gamma/Nuclear receptor coactivator 2 (P37231 whole entry): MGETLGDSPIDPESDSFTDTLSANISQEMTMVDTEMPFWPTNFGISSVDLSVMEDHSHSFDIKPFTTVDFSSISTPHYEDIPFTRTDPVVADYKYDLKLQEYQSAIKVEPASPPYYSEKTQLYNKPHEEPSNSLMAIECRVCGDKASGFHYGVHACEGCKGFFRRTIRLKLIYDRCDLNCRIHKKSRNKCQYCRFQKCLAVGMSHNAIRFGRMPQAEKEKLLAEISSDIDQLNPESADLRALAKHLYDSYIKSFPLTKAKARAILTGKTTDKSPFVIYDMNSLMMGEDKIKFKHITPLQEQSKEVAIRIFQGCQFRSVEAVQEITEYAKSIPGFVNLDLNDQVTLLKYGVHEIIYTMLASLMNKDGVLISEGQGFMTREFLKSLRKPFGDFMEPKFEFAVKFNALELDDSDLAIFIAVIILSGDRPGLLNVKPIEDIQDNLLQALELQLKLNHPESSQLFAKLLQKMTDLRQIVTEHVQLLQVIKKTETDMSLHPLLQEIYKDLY
Chain of Peroxisome proliferator-activated receptor gamma/Nuclear receptor coactivator 2 (Q15596 whole entry, further chain): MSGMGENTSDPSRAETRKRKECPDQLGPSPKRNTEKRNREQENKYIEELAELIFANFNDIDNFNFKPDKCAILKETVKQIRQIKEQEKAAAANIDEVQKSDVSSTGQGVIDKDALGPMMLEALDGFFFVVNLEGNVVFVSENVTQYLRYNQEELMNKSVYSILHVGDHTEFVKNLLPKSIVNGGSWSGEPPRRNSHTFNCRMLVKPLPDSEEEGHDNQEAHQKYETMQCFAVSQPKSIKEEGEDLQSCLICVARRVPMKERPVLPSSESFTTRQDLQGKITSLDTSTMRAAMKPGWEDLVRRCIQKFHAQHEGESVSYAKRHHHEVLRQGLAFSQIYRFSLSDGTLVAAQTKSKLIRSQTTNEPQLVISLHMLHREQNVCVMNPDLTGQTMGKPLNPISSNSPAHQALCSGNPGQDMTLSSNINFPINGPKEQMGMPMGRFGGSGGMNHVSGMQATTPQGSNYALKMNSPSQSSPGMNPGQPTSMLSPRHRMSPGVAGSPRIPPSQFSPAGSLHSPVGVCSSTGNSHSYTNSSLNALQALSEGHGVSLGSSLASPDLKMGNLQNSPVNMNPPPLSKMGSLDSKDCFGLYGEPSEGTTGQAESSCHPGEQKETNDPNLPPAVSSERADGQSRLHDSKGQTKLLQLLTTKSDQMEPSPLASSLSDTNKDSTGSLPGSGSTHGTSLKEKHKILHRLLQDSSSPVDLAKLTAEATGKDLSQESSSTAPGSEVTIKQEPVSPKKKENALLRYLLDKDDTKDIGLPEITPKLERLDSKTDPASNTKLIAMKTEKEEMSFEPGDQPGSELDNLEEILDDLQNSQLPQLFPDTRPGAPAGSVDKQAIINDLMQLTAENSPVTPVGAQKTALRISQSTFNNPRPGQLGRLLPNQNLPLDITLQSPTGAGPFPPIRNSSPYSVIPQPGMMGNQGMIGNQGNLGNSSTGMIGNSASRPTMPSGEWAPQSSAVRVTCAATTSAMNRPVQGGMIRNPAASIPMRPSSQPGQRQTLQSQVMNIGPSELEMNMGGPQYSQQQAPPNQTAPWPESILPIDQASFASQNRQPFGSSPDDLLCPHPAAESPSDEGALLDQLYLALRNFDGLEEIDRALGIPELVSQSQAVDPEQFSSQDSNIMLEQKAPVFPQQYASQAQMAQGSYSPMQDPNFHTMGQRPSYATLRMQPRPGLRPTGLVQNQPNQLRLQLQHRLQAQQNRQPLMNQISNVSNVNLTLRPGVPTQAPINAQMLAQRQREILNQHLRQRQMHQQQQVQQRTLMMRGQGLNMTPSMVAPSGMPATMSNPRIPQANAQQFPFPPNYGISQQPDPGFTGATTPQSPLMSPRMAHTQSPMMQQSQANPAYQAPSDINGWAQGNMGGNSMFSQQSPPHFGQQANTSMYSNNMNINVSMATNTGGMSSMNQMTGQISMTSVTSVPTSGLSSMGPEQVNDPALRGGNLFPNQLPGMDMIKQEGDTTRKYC

IC50 [1]: > 32 µM (inactive) | EC50 (Cannabinoid receptor 1 [2]): > 32 µM (inactive) | IC50 [3]: 0.908 µM (active) | IC50 (Cannabinoid receptor 1 [4]): 6.63 µM (active) | IC50 [5]: 0.831 µM (active) | IC50 (Cannabinoid receptor 2 [6]): > 32 µM (inactive) | EC50 [7]: > 32 µM (inactive) | EC50 (Cannabinoid receptor 2 [8]): > 32 µM (inactive)
SMILES: COc1ccc(S(=O)(=O)Nc2ccc(F)cc2)cc1N(C)S(=O)(=O)c1ccc(Cl)cc1

EC50 [9]: 16.2 µM (inactive) | EC50 [10]: 18.7 µM (not active) | EC50 [11]: > 79.4 µM (not active)
SMILES: C#CCn1/c(=N/C(=O)c2sc3ccccc3c2Cl)sc2cc(S(N)(=O)=O)ccc21

IC50 [12]: > 100 µM (inactive) | IC50 [13]: > 100 µM (inactive) | IC50 [14]: > 100 µM (inactive) | IC50 [15]: > 100 µM (inactive) | IC50 [16]: > 100 µM (inactive) | IC50 [17]: > 100 µM (inactive)
SMILES: O=C(O)COc1ccc(NC(=O)c2ccco2)cc1
